From patent US11566007B2, “Ras inhibitors” (Revolution Medicines, Inc., priority 2019, dated 2023)
Where “and” joins values, the source holds several entries; their conditions need not be identical. Identical values can stand only once. Like-named read-outs stand apart in the source and are kept apart here.

Experiments:
[1] = biological target: KRAS WT (Homo sapiens (Human), UniProt P01116+P62937); assay: Ras-Raf (BRAF RBD) disruption / FRET / MOA assay, KRAS WT; assay type: biochemical; conditions: read-out: IC50* KRAS WT FRET data
Chain of KRAS WT (P01116-2 other isoform, or with tags, fused parts or gaps): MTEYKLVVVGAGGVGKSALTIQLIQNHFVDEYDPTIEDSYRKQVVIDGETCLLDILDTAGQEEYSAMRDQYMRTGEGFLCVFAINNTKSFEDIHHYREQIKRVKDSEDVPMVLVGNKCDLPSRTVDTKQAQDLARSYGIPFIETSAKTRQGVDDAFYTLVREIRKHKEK
Chain of KRAS WT (P62937 whole entry, canonical isoform): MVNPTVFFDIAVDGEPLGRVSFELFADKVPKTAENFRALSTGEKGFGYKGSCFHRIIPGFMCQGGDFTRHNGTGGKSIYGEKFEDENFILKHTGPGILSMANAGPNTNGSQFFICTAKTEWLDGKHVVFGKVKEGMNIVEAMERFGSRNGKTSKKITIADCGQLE
Method: (§1) The purpose of this biochemical assay is to measure the ability of test compounds to facilitate ternary complex formation between a nucleotide-loaded Ras isoform and cyclophilin A; the resulting ternary complex disrupts binding to a BRAF^RBD construct, inhibiting Ras signaling through a RAF effector.
(§2) Compound is present in plate wells as a 10-point 3-fold dilution series starting at a final concentration of 30 μM. After incubation at 25° C. for 3 hours, a mixture of Anti-His Eu-W1024 and anti-GST allophycocyanin is then added to assay sample wells at final concentrations of 10 nM and 50 nM, respectively, and the reaction incubated for an additional 1.5 hours. […] Compounds that facilitate disruption of a Ras:RAF complex are identified as those eliciting a decrease in the TR-FRET ratio relative to DMSO control wells.
(§3) This protocol may also be executed substituting other Ras proteins or nucleotides.
(§4) The purpose of this biochemical assay was to measure the ability of test compounds to facilitate ternary complex formation between a nucleotide-loaded K-Ras isoform and Cyclophilin A; the resulting ternary complex disrupts binding to a BRAF^RBD construct, inhibiting K-Ras signaling through a RAF effector. Data is reported as IC50 values.
as §2, with “Compound was” for “Compound is”, “allophycocyanin was” for “allophycocyanin is”, “a K-Ras:RAF” for “a Ras:RAF”, “complex were” for “complex are”

[2] = biological target: KRAS G12V (Homo sapiens (Human), UniProt P01116+P62937, G12V); assay: Ras-Raf (BRAF RBD) disruption / FRET / MOA assay, KRAS G12V; assay type: biochemical; conditions: read-out: IC50* KRAS G12V FRET data
Chain of KRAS G12V (P01116-2 other isoform, or with tags, fused parts or gaps G12V): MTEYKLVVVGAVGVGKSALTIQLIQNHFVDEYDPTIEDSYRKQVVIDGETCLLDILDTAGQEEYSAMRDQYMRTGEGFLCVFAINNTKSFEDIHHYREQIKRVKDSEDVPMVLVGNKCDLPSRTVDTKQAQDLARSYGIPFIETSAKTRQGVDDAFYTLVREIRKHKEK
Chain of KRAS G12V (P62937 whole entry): as the sequence (P62937 whole entry, canonical isoform) above
Method: as §1, §2, §3, §4
as §2, with “Compound was” for “Compound is”, “allophycocyanin was” for “allophycocyanin is”, “a K-Ras:RAF” for “a Ras:RAF”, “complex were” for “complex are”

[3] = biological target: KRAS G12D (Homo sapiens (Human), UniProt P01116+P62937, G12D); assay: Ras-Raf (BRAF RBD) disruption / FRET / MOA assay, KRAS G12D; assay type: biochemical; conditions: Ras-Raf disruption/FRET/MOA assay; class symbols; read-out: KRAS G12D FRET data IC50
Chain of KRAS G12D (P01116-2 other isoform, or with tags, fused parts or gaps G12D): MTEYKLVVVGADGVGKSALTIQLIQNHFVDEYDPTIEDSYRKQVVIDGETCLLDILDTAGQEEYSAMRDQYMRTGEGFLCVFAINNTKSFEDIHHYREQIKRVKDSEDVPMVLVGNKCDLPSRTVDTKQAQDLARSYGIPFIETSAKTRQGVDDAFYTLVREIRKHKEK
Chain of KRAS G12D (P62937 whole entry): as the sequence (P62937 whole entry, canonical isoform) above
Summary of the method: (§5)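 Ras:RAF disruption was scored as a fall in TR-FRET ratio relative to DMSO. Compound ranged in 3-fold steps over 10 points from 30 μM final; incubation ran 3 h at 25° C, detection antibodies a further 1.5 h. Reported as IC50.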

[4] = tested on: NCI-H358 cells (K-Ras G12C); assay: Potency assay: pERK in NCI-H358 cells; assay type: cell-based, human; conditions: Homo sapiens, NCI-H358; H358 KRAS G12C; read-out: pERK EC50
Summary of the method: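 4 h cpd, 37 °C; 10-pt 3-fold series, 10 mM DMSO top stock, duplicates. Readout pERK: AlphaLISA SureFire Ultra or In-Cell Western (IR-800CW secondary, DRAQ5 DNA stain). IC50, 4-PL fit vs log conc.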

[5] = tested on: NCI-H358 (K-Ras G12C); assay: CellTiter-Glo cell viability assay, NCI-H358; assay type: cell-based, human; conditions: NCI-H358, 5-day treatment, class symbols, read-out: Additional H358 Cell Viability assay data (K-Ras G12C, IC50)
Summary of the method: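 Viability of K-Ras mutant lines is measured by ATP luminescence after five days of compound treatment. Percent of DMSO control is calculated and dose-response data are fitted with a four-parameter logistic equation.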

[6] = biological target: KRAS G12S (Homo sapiens (Human), UniProt P01116+P62937, G12S); assay: Ras-Raf (BRAF RBD) disruption / FRET / MOA assay, KRAS G12S; assay type: biochemical; conditions: Ras-Raf disruption/FRET/MOA assay; class symbols; read-out: KRAS G12S FRET data IC50
Chain of KRAS G12S (P01116-2 other isoform, or with tags, fused parts or gaps G12S): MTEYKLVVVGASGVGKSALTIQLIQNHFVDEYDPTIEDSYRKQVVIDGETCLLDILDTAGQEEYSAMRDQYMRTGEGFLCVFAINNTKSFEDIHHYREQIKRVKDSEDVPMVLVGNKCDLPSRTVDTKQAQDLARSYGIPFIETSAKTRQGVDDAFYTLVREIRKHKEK
Chain of KRAS G12S (P62937 whole entry): as the sequence (P62937 whole entry, canonical isoform) above
Summary of the method: as §5

[7] = biological target: K-Ras G12C (Homo sapiens (Human), UniProt P01116+P62937, G12C); assay: Ras-Raf (BRAF RBD) disruption / FRET / MOA assay, KRAS G12C; assay type: biochemical; conditions: KRAS G12C; Ras-Raf disruption/FRET/MOA assay; read-out: IC50* KRAS G12C FRET data
Chain of K-Ras G12C (P01116-2 other isoform, or with tags, fused parts or gaps G12C): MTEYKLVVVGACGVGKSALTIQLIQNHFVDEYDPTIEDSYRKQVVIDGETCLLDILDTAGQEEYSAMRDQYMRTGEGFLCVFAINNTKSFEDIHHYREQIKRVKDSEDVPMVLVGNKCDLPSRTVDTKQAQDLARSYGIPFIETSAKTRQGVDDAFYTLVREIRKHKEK
Chain of K-Ras G12C (P62937 whole entry): as the sequence (P62937 whole entry, canonical isoform) above
Method: as §1, §2, §3, §4
as §2, with “Compound was” for “Compound is”, “allophycocyanin was” for “allophycocyanin is”, “a K-Ras:RAF” for “a Ras:RAF”, “complex were” for “complex are”

[8] = biological target: K-Ras G13C (Homo sapiens (Human), UniProt P01116+P62937, G13C); assay: Ras-Raf (BRAF RBD) disruption / FRET / MOA assay, KRAS G13C; assay type: biochemical; conditions: KRAS G13C; Ras-Raf disruption/FRET/MOA assay; read-out: IC50* KRAS G13C FRET data
Chain of K-Ras G13C (P01116-2 other isoform, or with tags, fused parts or gaps G13C): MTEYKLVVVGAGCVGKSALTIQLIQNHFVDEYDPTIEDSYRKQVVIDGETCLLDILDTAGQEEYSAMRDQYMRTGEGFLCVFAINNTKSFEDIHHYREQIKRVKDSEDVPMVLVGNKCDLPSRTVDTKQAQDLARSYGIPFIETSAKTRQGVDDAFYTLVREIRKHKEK
Chain of K-Ras G13C (P62937 whole entry): as the sequence (P62937 whole entry, canonical isoform) above
Method: as §1, §2, §3, §4
as §2, with “Compound was” for “Compound is”, “allophycocyanin was” for “allophycocyanin is”, “a K-Ras:RAF” for “a Ras:RAF”, “complex were” for “complex are”

SMILES	IC50 [1]	IC50 [2]	IC50 [3]	EC50 [4] [µM]	IC50 ([5]; Homo sapiens, NCI-H358, 120 h) [µM]	IC50 [6]	IC50 [7]	IC50 [8]	IC50 [5] [µM]
CCn1c(-c2ccccc2CCOC)c2c3cc(ccc31)-c1cc(O)cc(c1)C[C@H](NC(=O)[C@H](C(C)C)N(C)C(=O)c1ccc(NC(=O)/C=C/CN(C)C)nc1)C(=O)N1CCC[C@H](N1)C(=O)OCC(C)(C)C2 [Example A218]	> 10 µM	1 to 10 µM and > 10 µM	1 to 10 µM	< 5	> 1	> 10 µM	0.1 to 1 µM and 1 to 10 µM	0.01 to 0.1 µM and 0.1 to 1 µM	–
CCn1c(-c2ccccc2CCOC)c2c3cc(ccc31)-c1cc(O)cc(c1)C[C@H](NC(=O)[C@H](C(C)C)N(C)C(=O)c1ccc(N(C)C(=O)/C=C/CN(C)C)cc1)C(=O)N1CCC[C@H](N1)C(=O)OCC(C)(C)C2 [Example A220]	> 10 µM	> 10 µM	1 to 10 µM and > 10 µM	< 5	> 1	> 10 µM	0.1 to 1 µM and 1 to 10 µM	0.1 to 1 µM	–
C=CC(=O)N1CC[C@H](C(=O)N(C)[C@H](C(=O)N[C@H]2Cc3cc(O)cc(c3)-c3ccc4c(c3)c(c(-c3ccc(OCC(=O)O)cc3)n4CC)CC(C)(C)COC(=O)[C@@H]3CCCN(N3)C2=O)C(C)C)C1 [Example A223]	> 10 µM	1 to 10 µM and > 10 µM	> 10 µM	–	> 1	1 to 10 µM and > 10 µM	0.1 to 1 µM and > 10 µM	> 10 µM	–
CCn1c(-c2ccccc2CCOC)c2c3cc(ccc31)-c1cc(O)cc(c1)C[C@H](NC(=O)[C@H](C(C)C)N(C)C(=O)c1ccc(NC(=O)/C=C/CN(C)C)cn1)C(=O)N1CCC[C@H](N1)C(=O)OCC(C)(C)C2 [Example A224]	> 10 µM	1 to 10 µM and > 10 µM	1 to 10 µM	< 5	> 1	> 10 µM	0.1 to 1 µM and 1 to 10 µM	0.01 to 0.1 µM and 0.1 to 1 µM	–
C=CC(=O)N1CC[C@H](C(=O)N(C)[C@H](C(=O)NC2C[C@H]3CN(CCCO3)c3ccc4c(c3)c(c(-c3cccnc3[C@H](C)OC)n4CC)CC(C)(C)COC(=O)[C@@H]3CCCN(N3)C2=O)C(C)C)C1 (stereo partly drawn) [Example A429]	–	–	> 10 µM	–	–	> 10 µM	> 10 µM	–	> 1

The next lines start with results.

IC50 [1]	IC50 [2]	IC50 [3]	EC50 [4] [µM]	IC50 ([5]; Homo sapiens, NCI-H358, 120 h) [µM]	IC50 [6]	IC50 [7]	IC50 [8]	SMILES	IC50 [5] [µM]
> 10 µM	> 10 µM	> 10 µM	< 5	0.1 to 1	> 10 µM	1 µM to 10 µM (2×) and > 10 µM (2×)	> 10 µM	C=CC(=O)N1CC[C@H](C(=O)N(C)[C@H](C(=O)N[C@H]2Cc3cc(O)cc(c3)-c3ccc4c(c3)c(c(-c3ccccc3CCOC)n4CC)CC(C)(C)COC(=O)[C@]3(C)CCCN(N3)C2=O)C(C)C)C1 [Example A219]	–
> 10 µM	1 to 10 µM and > 10 µM	> 10 µM	< 5	–	1 to 10 µM and > 10 µM	0.1 to 1 µM and > 10 µM	> 10 µM and 1 to 10 µM	CC#CC(=O)N1CC[C@H](C(=O)N(C)[C@H](C(=O)N[C@H]2Cc3cc(O)cc(c3)-c3ccc4c(c3)c(c(-c3ccccc3CCOC)n4CC)CC(C)(C)COC(=O)[C@@H]3CCCN(N3)C2=O)C(C)C)C1 [Example A221]	–
1 to 10 µM and > 10 µM	> 10 µM	> 10 µM	< 5	–	> 10 µM	0.1 to 1 µM and 1 to 10 µM	0.1 to 1 µM and > 10 µM	C=CC(=O)N1CCC2(CC1)CCN([C@H](C(=O)N[C@H]1Cc3cc(O)cc(c3)-c3ccc4c(c3)c(c(-c3ccccc3CCOC)n4CC)CC(C)(C)COC(=O)[C@@H]3CCCN(N3)C1=O)C(C)C)C2=O [Example A222]	–
–	–	> 10 µM	–	–	> 10 µM	1 to 10 µM	–	C=CC(=O)N1CC[C@H](C(=O)N(C)[C@H](C(=O)N[C@H]2Cc3cc(N)cc(c3)-c3ccc4c(c3)c(c(-c3ccccc3CCOC)n4CC)CC(C)(C)COC(=O)[C@@H]3CCCN(N3)C2=O)C(C)C)C1 [Examples A002]	–
